As a reminder, the inhibition is the change of the read-out against control, counted positive when it falls.

Test [1] deals with human monocyte stimulated cytokine production (TNF-α). Description: Monocyte assay (LPS-stimulated TNF-α production). The class given is cell-based. The following applies: for IC50: 24 h, 200 ng/mL LPS, TNF-α by ELISA. On the procedure:
Effect of IKK-β inhibition on human monocyte stimulated cytokine production was assessed as follows: Monocytes were isolated from heparinized whole blood by Ficoll gradient, followed by purification of CD14+ cells using MACS magnetic cell separation beads. Isolated monocytes were then adhered to 96-well culture plates at 1×10^6 cells/mL in RPMI 1640 10% FBS (JRH Biosciences, Lenexa Kans.) for 2 h. Test compounds are added to the wells 30 minutes prior to stimulation with a final vehicle concentration of 0.1% DMSO. Monocytes were activated by the addition of 200 ng/mL endotoxin (LPS; E. coli serotype 026:B6)(Sigma, St. Louis, Mo.) and incubated for 24 hrs at 37 C. Cell-free supernates were analyzed by ELISA for TNF-α using Pharmingen matched pair Abs. Viability of the cells was determined by 10% trypan blue exclusion.
A general note: In an ELISA, binding on a coated surface is turned into a signal by an enzyme label.

Test [2] has as its target T1, Recombinant human IKKβ (residues 1-737) (Homo sapiens, UniProt O14920).
T1 construct: Recombinant human IKKβ (residues 1-737); GST (C); made in house
T1 sequence (O14920 1-737): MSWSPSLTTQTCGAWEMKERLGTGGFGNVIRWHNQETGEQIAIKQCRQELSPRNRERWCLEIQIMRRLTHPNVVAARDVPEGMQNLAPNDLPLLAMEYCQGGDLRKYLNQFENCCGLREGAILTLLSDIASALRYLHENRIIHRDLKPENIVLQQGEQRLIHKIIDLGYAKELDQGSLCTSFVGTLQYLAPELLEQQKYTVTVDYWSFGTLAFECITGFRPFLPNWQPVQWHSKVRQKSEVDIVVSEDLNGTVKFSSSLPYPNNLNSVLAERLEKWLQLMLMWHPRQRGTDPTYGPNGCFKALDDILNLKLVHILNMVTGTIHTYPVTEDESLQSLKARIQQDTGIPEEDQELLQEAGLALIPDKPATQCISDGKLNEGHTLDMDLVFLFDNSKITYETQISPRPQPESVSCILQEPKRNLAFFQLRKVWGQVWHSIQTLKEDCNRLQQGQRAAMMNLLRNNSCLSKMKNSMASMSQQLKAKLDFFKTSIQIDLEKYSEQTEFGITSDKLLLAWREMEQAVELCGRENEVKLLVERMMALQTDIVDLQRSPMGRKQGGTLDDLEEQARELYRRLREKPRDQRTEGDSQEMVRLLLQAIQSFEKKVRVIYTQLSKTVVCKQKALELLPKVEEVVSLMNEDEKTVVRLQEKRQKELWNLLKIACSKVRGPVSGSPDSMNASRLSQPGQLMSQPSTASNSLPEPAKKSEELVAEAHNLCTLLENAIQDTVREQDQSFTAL
Description: IKK2 assay (TR-FRET). The note with it: ATP 1 μM final, read-out: pIC50 against IKK2 (converted). Format: biochemical. The method in brief:
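Baculovirus-expressed C-terminal GST-tagged IKKβ (0.5-5 nM final) in HEPES pH 7.4, MgCl2, CHAPS, DTT, BSA with 1.7% DMSO; 25 nM GST-IB substrate and 1 μM ATP, 15 min at room temperature. EDTA stop; phospho-Ser32/36 detected by Eu-antibody/APC-anti-GST TR-FRET, 665/620 nm ratio.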
(Time-resolved FRET reads energy transfer from a long-lived donor to a nearby acceptor.)

The structures appear in SMILES notation. Counter-ions that a name gives are not always drawn.

Consider `CCS(=O)(=O)N1CCC(c2c[nH]c3c(C(N)=O)cc(-c4cccc(CN5CCCCC5)c4)cc23)CC1` [Example 1, 3-[1-(ethylsulfonyl)-4-piperidinyl]-5-[3-(1-piperidinylmethyl)phenyl]-1H-indole-7-carboxamide], for which the IC50 in test [1] was at most 1500 nM; in test [2] it was at most 10000 nM. `CCS(=O)(=O)N1CCC(c2c[nH]c3c(C(N)=O)cc(-c4cccc(CN5CCNCC5)c4)cc23)CC1` [Example 2, 3-[1-(ethylsulfonyl)-4-piperidinyl]-5-[3-(1-piperazinylmethyl)phenyl]-1H-indole-7-carboxamide]: the IC50 in test [1] was at most 1500 nM; in test [2], at most 10000 nM. In the case of `CCS(=O)(=O)N1CCC(c2c[nH]c3c(C(N)=O)cc(-c4cccc(CN5CCOCC5)c4)cc23)CC1` [Example 3, 3-[1-(ethylsulfonyl)-4-piperidinyl]-5-[3-(4-morpholinylmethyl)phenyl]-1H-indole-7-carboxamide], the IC50 in test [1] is at most 1500 nM; in test [2] it was at most 10000 nM.

On to `CCS(=O)(=O)N1CCC(c2c[nH]c3c(C(N)=O)cc(-c4cccc(CN(C)CCS(C)(=O)=O)c4)cc23)CC1` [Example 4, 3-[1-(ethylsulfonyl)-4-piperidinyl]-5-[3-({methyl[2-(methylsulfonyl)ethyl]amino}methyl)phenyl]-1H-indole-7-carboxamide], for which the IC50 in test [1] was over 1000 nM; in test [2], at most 10000 nM. As for `CCS(=O)(=O)N1CCC(c2c[nH]c3c(C(N)=O)cc(-c4cccc(CN(C)CCN(C)C)c4)cc23)CC1` [Example 5, 5-(3-{[[2-(dimethylamino)ethyl](methyl)amino]methyl}phenyl)-3-[1-(ethylsulfonyl)-4-piperidinyl]-1H-indole-7-carboxamide], the figures for the IC50 in test [1] and in test [2] were at most 1500 nM and at most 10000 nM, respectively. With `CCS(=O)(=O)N1CCC(c2c[nH]c3c(C(N)=O)cc(-c4cccc(CN5CCN(CCOCCO)CC5)c4)cc23)CC1` [Example 6, 3-[1-(ethylsulfonyl)-4-piperidinyl]-5-{3-[(4-{2-[(2-hydroxyethyl)oxy]ethyl}-1-Piperazinyl)methyl]phenyl}-1H-indole-7-carboxamide], the IC50 in test [1] was at most 1500 nM; in test [2] it was at most 10000 nM. As to `CCS(=O)(=O)N1CCC(c2c[nH]c3c(C(N)=O)cc(-c4cccc(CN5CCCC(CO)C5)c4)cc23)CC1` (centres unmarked) [Example 7, 3-[1-(ethylsulfonyl)-4-piperidinyl]-5-(3-{[3-(hydroxymethyl)-1-piperidinyl]methyl}phenyl)-1H-indole-7-carboxamide], the IC50 was at most 1500 nM in test [1] and at most 10000 nM in test [2]. For `CCS(=O)(=O)N1CCC(c2c[nH]c3c(C(N)=O)cc(-c4cccc(CN(CCOC)CCOC)c4)cc23)CC1` [Example 8, 5-[3-({bis[2-(methyloxy)ethyl]amino}methyl)phenyl]-3-[1-(ethylsulfonyl)-4-piperidinyl]-1H-indole-7-carboxamide], the IC50 in test [1] was at most 1500 nM; in test [2], at most 10000 nM. For `CCS(=O)(=O)N1CCC(c2c[nH]c3c(C(N)=O)cc(-c4cccc(CN5CC(C)OC(C)C5)c4)cc23)CC1` (centres unmarked) [Example 9, 5-{3-[(2,6-dimethyl-4-morpholinyl)methyl]phenyl}-3-[1-(ethylsulfonyl)-4-piperidinyl]-1H-indole-7-carboxamide], in that order: at most 1500 nM and at most 10000 nM. Take `CCS(=O)(=O)N1CCC(c2c[nH]c3c(C(N)=O)cc(-c4cccc(CN5CCCC5c5nccs5)c4)cc23)CC1` (centres unmarked) [Example 10, 3-[1-(ethylsulfonyl)-4-piperidinyl]-5-(3-{[2-(1,3-thiazol-2-yl)-1-pyrrolidinyl]methyl}phenyl)-1H-indole-7-carboxamide]: the figures for the IC50 in test [1] and in test [2] were at most 1500 nM and at most 10000 nM, respectively.

Take `CCS(=O)(=O)N1CCC(c2c[nH]c3c(C(N)=O)cc(-c4cccc(CN5CCCC5c5cccs5)c4)cc23)CC1` (centres unmarked) [Example 11, 3-[1-(ethylsulfonyl)-4-piperidinyl]-5-(3-{[2-(2-thienyl)-1-pyrrolidinyl]methyl}phenyl)-1H-indole-7-carboxamide]: the IC50 in test [1] was at most 1500 nM; in test [2], at most 10000 nM. For `CCS(=O)(=O)N1CCC(c2c[nH]c3c(C(N)=O)cc(-c4cccc(CN(C)CC(O)c5ccccc5)c4)cc23)CC1` (centres unmarked) [Example 12, 3-[1-(ethylsulfonyl)-4-piperidinyl]-5-(3-{[(2-hydroxy-2-phenylethyl)-(methyl)amino]methyl}phenyl)-1H-indole-7-carboxamide] the same measures were at most 1500 nM and at most 10000 nM. Turning to `CCN(C)Cc1cccc(-c2cc(C(N)=O)c3[nH]cc(C4CCN(S(=O)(=O)CC)CC4)c3c2)c1` [Example 13, 5-(3-{[ethyl(methyl)amino]methyl}phenyl)-3-[1-(ethylsulfonyl)-4-piperidinyl]-1H-indole-7-carboxamide], the IC50 in test [1] is at most 1500 nM; in test [2], at most 10000 nM. For `CCS(=O)(=O)N1CCC(c2c[nH]c3c(C(N)=O)cc(-c4cccc(CNC5CCCC5)c4)cc23)CC1` [Example 15, 5-{3-[(cyclopentylamino)methyl]phenyl}-3-[1-(ethylsulfonyl)-4-piperidinyl]-1H-indole-7-carboxamide], in that order: over 1000 nM and at most 10000 nM. For `CCS(=O)(=O)N1CCC(c2c[nH]c3c(C(N)=O)cc(-c4cccc(CNCc5ccc(O)c(O)c5)c4)cc23)CC1` [Example 16, 5-[3-({[(3,4-dihydroxyphenyl)methyl]amino}methyl)phenyl]-3-[1-(ethylsulfonyl)-4-piperidinyl]-1H-indole-7-carboxamide], in that order: at most 1500 nM and at most 10000 nM. Regarding `CCS(=O)(=O)N1CCC(c2c[nH]c3c(C(N)=O)cc(-c4cccc(CNCc5ccsc5)c4)cc23)CC1` [Example 17, 3-[1-(ethylsulfonyl)-4-piperidinyl]-5-(3-{[(3-thienylmethyl)amino]methyl}phenyl)-1H-indole-7-carboxamide], the IC50 is at most 1500 nM in test [1] and at most 10000 nM in test [2]. For `CCS(=O)(=O)N1CCC(c2c[nH]c3c(C(N)=O)cc(-c4cccc(CN[C@@H](CO)C(C)C)c4)cc23)CC1` [Example 18, 3-[1-(ethylsulfonyl)-4-piperidinyl]-5-[3-({[(1R)-1-(hydroxymethyl)-2-methylpropyl]amino}methyl)phenyl]-1H-indole-7-carboxamide] the same measures were at most 1500 nM and at most 10000 nM. In the case of `CCS(=O)(=O)N1CCC(c2c[nH]c3c(C(N)=O)cc(-c4cccc(CNC(C)CO)c4)cc23)CC1` (centres unmarked) [Example 19, 3-[1-(ethylsulfonyl)-4-piperidinyl]-5-(3-{[(2-hydroxy-1-methylethyl)amino]methyl}phenyl)-1H-indole-7-carboxamide], the IC50 in test [1] is at most 1500 nM; in test [2] it was at most 10000 nM. `CCS(=O)(=O)N1CCC(c2c[nH]c3c(C(N)=O)cc(-c4cccc(CN[C@H]5CC[C@H](O)CC5)c4)cc23)CC1` [Example 20, 3-[1-(ethylsulfonyl)-4-piperidinyl]-5-(3-{[(trans-4-hydroxycyclohexyl)amino]methyl}phenyl)-1H-indole-7-carboxamide]: the IC50 in test [1] was at most 1500 nM; in test [2], at most 10000 nM. `CCCOCCCNCc1ccc(-c2cc(C(N)=O)c3[nH]cc(C4CCN(S(=O)(=O)CC)CC4)c3c2)s1` [Example 198, 3-[1-(ethylsulfonyl)-4-piperidinyl]-5-[5-({[3-(propyloxy)propyl]amino}methyl)-2-thienyl]-1H-indole-7-carboxamide]: the inhibition at 0.3 µM in test [1] (read-out: inhibition at 300 nM in the monocyte assay) lay in the range of 0 to 60%. In test [1], `CCS(=O)(=O)N1CCC(c2c[nH]c3c(C(N)=O)cc(-c4ccc(CNCC(C)C)s4)cc23)CC1` [Example 243, 3-[1-(ethylsulfonyl)-4-piperidinyl]-5-(5-{[(2-methylpropyl)amino]methyl}-2-thienyl)-1H-indole-7-carboxamide trifluoroacetate] registered an IC50 of at most 1500 nM. Still for that read-out and setting: then `CCOCCN(C)Cc1cc(-c2cc(C(N)=O)c3[nH]cc(C4CCN(S(=O)(=O)CC)CC4)c3c2)cs1` [Example 403, 5-(5-{[[2-(ethyloxy)ethyl](methyl)amino]methyl}-3-thienyl)-3-[1-(ethylsulfonyl)-4-piperidinyl]-1H-indole-7-carboxamide], with at most 1500 nM.

The values above are taken from patent publication US8063071B2 (GlaxoSmithKline, LLC, priority 2007, dated 2011).
